Test results reported in patent US20100204130A1, “USE OF HUMAN NEUROPEPTIDE AS A THERAPEUTIC AGENT” (priority 2007, published 2010).
Where a SMILES comes first, the peptide text is derived from it.

Assays:
Interleukin-5 (IL-5) = test: Th1/Th2 cytokine profiling assay: IL-5; assay type: cell-based, Balb/c mice; settings: Ovalbumin-restimulated spleen cells; test peptide 10 micrograms per ml; 72 hours
From the text: (§1) The Balb/c mice (originated in 1923, it is a popular strain and is used in many different research disciplines. Also classified as an inbred from the production of 20 or more successive brother-sister matings, the Balb/c mouse is albino and small in size) were immunized on Days 1, 15, and 29 with Ovalbumin (Ovalbumin is the main protein found in egg white, commonly used to stimulate an immunological reaction in test animals) in PBS (5 micrograms/injection). On day 50, spleens of the mice were harvested (3 weeks after last boost with Ovalbumin). Cells were cultured (2×10^5/well in triplicate) and incubated with culture medium or test peptide—10 micrograms per ml—for 30 min. Thereafter, additional Ovalbumin was added to the cells at 10 micrograms/ml for in vitro restimulation of the cells. 72 hours later, cell supernatants were harvested and assayed using the Becton Dickinson Mouse Th1/Th2 Cytokine CBA Kit. This kit can be used to measure Interleukin-2 (IL-2), Interleukin-4 (IL-4), Interleukin-5 (IL-5), Interferon-γ (IFN-γ), and Tumor Necrosis Factor-α (TNF-α) protein levels in a single sample. The kit performance has been optimized for analysis of physiologically relevant concentrations ([…] levels) of specific cytokine proteins in tissue culture supernatants and serum samples.

MRSA = test: Methicillin Resistant Staphylococcus Aureus (MRSA) assay; assay type: cell-based; settings: MRSA growth; peptide 10 micrograms per ml; read visually
RAW 264.7 cells = test: Phagocytosis assay (Fluorescein-labeled Escherichia coli); assay type: cell-based, mouse; settings: test peptide 10 micrograms per ml, flow cytometry
HCMV strain AD169 = test: HCMV plaque reduction assay in MRC-5 cells; assay type: cell-based; settings: HCMV AD169 in MRC-5 cells; peptide 10 micrograms per ml; 7-10 days
From the text: Ganciclovir was used as positive control.

TNF alpha = TNF alpha production assay (LPS-stimulated macrophages, ELISA); assay type: cell-based; settings: human macrophages, test peptide 10 micrograms per ml, lipopolysaccharide 200 ng/ml, overnight
Method: Human Peripheral Blood Mononuclear Cells (PBMC) were obtained from normal human donors. The macrophages were prepared by adherence of PBMC to the plastic wells of the plates. After 8 days in culture in the presence of recombinant human macrophage-colony stimulating factor at 2 ng/ml, differentiated macrophages were preincubated with test peptide—10 micrograms per ml—for 30 min, followed by in-well stimulation by the addition of lipopolysaccharide at a final concentration of 200 ng/ml. Not stimulated macrophages served as negative background control.
After overnight incubation, supernatants from the control and LPS-stimulated cultures were harvested and assayed for TNF alpha production employing a TNF alpha specific ELISA.

Interleukin-2 (IL-2) = test: Th1/Th2 cytokine profiling assay: IL-2; assay type: cell-based, Balb/c mice; settings: Ovalbumin-restimulated spleen cells; test peptide 10 micrograms per ml; 72 hours
From the text: as §1

[1] = Cytotoxicity in HBV assay (dye uptake cell viability); assay type: cell-based; settings: human, HepG2-2.2.15 cells, test peptide 10 micrograms per ml
[2] = tested on: Human Peripheral Blood Mononuclear Cells (PBMC); test: B cell proliferation assay (SAC plus Interleukin-2, 3H-thymidine); assay type: cell-based; settings: test peptide 10 micrograms per ml
Method: Human Peripheral Blood Mononuclear Cells (PBMC) were obtained from normal human donors. The B cell proliferation was induced by stimulation of the cells with the B cell mitogen Staphylococcus aureus Cowans I (SAC) plus Interleukin-2, either in the absence (positive proliferation control), or in the presence of test peptide—10 micrograms per ml—to examine their effects on the B cell response. 10^5/well PBMC were plated in 96-well microtiter plates and assayed in duplicate with the peptide. Cell cultures were incubated at 37° C. for 3 days in a 5% CO2 incubator and were thereafter pulsed with 1 microCi/well ^3H-thymidine for additional 12 hours of culture. At the end of incubation time, the plates were harvested and the cells counted by liquid scintillation for the incorporation of ^3H-thymidine as a measure of B cell proliferation.

[3] = tested on: Human Peripheral Blood Mononuclear Cells (PBMC); test: T cell proliferation assay (PHA, 3H-thymidine); assay type: cell-based; settings: test peptide 10 micrograms per ml
Method: Human Peripheral Blood Mononuclear Cells (PBMC) were obtained from normal human donors. The T cell proliferation was induced by stimulation of the cells with the T cell mitogen phytohemagglutinin (PHA), either in the absence (positive proliferation control), or in the presence of test peptide—10 micrograms per ml—to examine their effects on the T cell proliferating response. 10^5/well PBMC were plated in 96-well microtiter plates and assayed in duplicate with the peptide. Cell cultures were incubated at 37° C. for 3 days in a 5% CO2 incubator and were thereafter pulsed with 1 microCi/well ^3H-thymidine for additional 12 hours of culture. At the end of incubation time, the plates were harvested and the cells counted by liquid scintillation for the incorporation of ^3H-thymidine as a measure of T cell proliferation.

[4] = Cytotoxicity in HCMV assay (CellTiter 96 cell viability); settings: human, MRC-5 cells (embryonal lung fibroblasts)
[5] = tested on: Primary Human endothelial cells (HUVEC); test: Endothelial cell migration assay; assay type: cell-based; settings: test peptide 10 micrograms per ml, 22 hours
Method: Endothelial cell migration is a prerequisite for the process of neo-vascularization or angiogenesis which is crucial for on-site recruitment of blood vessel formation. Primary Human endothelial cells (HUVEC) were seeded in insert chambers with 3 micrometer pore size of multi-transwell plate for 6 hours at 37° C. in Endothelial Cell Basal Medium (EBM) supplemented with 0.1% bovine serum albumin. Thereafter, designated concentration of test peptide—10 micrograms per ml—was added in duplicate wells. The endothelia were allowed to migrate for 22 hours at 37° C., then, migrated cells were fixed and stained with Hoechst 33342 dye. Images of 3 fields per insert were taken and the number of migrated cells per field were quantified using the ImageProPlus software. Data were analyzed for the average number of the migrated cells and standard deviation of six data points for each treatment condition. Active test peptide against HUVEC migration was determined based on 50% inhibition of migrated cells as compared with the control. Statistic p values were computed using the Student's t-test.

HUVEC = test: Endothelial tube formation assay; assay type: cell-based, human; settings: test peptide 10 micrograms per ml, 20 hours
Method: The endothelial tube formation assay is based on the ability of endothelial cells to form three-dimensional capillary-like tubular structures when cultured on a gel of basement membrane extract. The endothelial tube formation assay represents a powerful model for studying inhibition and induction of angiogenesis. Pre-labeled HUVEC with Calcein AM were seeded in a 96-well culture plate coated with extracellular metrix (Chemicon international Cat. ECM625) and treated with test peptide—10 micrograms per ml—in full growth medium. […] control was vehicle only. The endothelial cells were allowed to form tubes for 20 hours and were then examined under an inverted fluorescent microscope. Duplicate wells for each treatment were photographed and quantitatively analyzed for an average tubule length using image analysis software ImageProPlus. Raw data were expressed as average tubule lengths in pixels ±standard deviation. Statistic p values were computed using the Student's t-test.

[6] = Cytotoxicity in HIV-1 assay (MTS cell viability); settings: human, CEM-SS cells
Streptococcus pneumoniae = Streptococcus pneumoniae assay; assay type: cell-based; settings: Streptococcus pneumoniae growth; peptide 10 micrograms per ml; read visually
[7] = tested on: hepatitis B virus (HBV) ayw strain; test: HBV replication assay in HepG2-2.2.15 cells (TaqMan PCR of secreted HBV DNA); assay type: cell-based; settings: test peptide 10 micrograms per ml, six days, HBV DNA by TaqMan PCR
Interleukin-4 (IL-4) = test: Th1/Th2 cytokine profiling assay: IL-4; assay type: cell-based, Balb/c mice; settings: Ovalbumin-restimulated spleen cells; test peptide 10 micrograms per ml; 72 hours
From the text: as §1

[8] = tested on: Tumor Necrosis Factor-α (TNF-α); test: Th1/Th2 cytokine profiling assay: TNF-α; assay type: cell-based, Balb/c mice; settings: Ovalbumin-restimulated spleen cells; test peptide 10 micrograms per ml; 72 hours
From the text: as §1

HIV-1IIIB = test: HIV-1 antiviral assay (CPE reduction, MTS); assay type: cell-based; settings: peptide 10 micrograms per ml, 6 days post-infection
A549 cells = test: Propidium iodide cell cycle assay; assay type: cell-based, human; settings: test peptide 10 micrograms per ml, 24 hours, FACS
From the text: Human A549 cells (carcinomic human alveolar basal epithelial cells) were utilized in the experiments employing the Propidium iodide cell cycle assay. The eukaryotic cell cycle is a series of events that take place in a cell leading to its replication. The regulation of the cell cycle involves steps crucial to the cell, including detecting and repairing genetic damage, and provision of various checks to prevent uncontrolled cell division. The molecular events that control the cell cycle are ordered and directional; that is, each process occurs in a sequential fashion. The cell cycle consists of four distinct phases: G1 phase, S phase, G2 phase (collectively known as interphase) and M phase. M phase is itself composed of two tightly coupled processes: mitosis, in which the cell's chromosomes are divided between the two daughter cells, and cytokinesis, in which the cell's cytoplasm divides forming distinct cells. Activation of each phase is dependent on the proper progression and completion of the previous one. Cells that have temporarily or reversibly stopped dividing are said to have entered a state of quiescence called Go phase. The relatively brief M phase consists of nuclear division and cytoplasmic division. The first phase within interphase, from the end of the previous M phase till the beginning of DNA synthesis is called G1 (G indicating gap or growth). During this phase the biosynthetic activities of the cell resume at a high rate. This phase is marked by synthesis of various enzymes that are required in S phase, mainly those needed for DNA replication. The ensuing S phase starts when DNA synthesis commences; when it is complete, all of the chromosomes have been replicated. The cell then enters the G2 phase, which lasts until the cell enters mitosis. Significant protein synthesis occurs during this phase, mainly involving the production of microtubules, which are required during the process of mitosis. […]
Propidium iodide is an intercalating agent and a fluorescent molecule that can be used to stain DNA. […] After incubation for 40 min at 37° C., cells were analyzed in the FACS.

Pseudomonas aeruginosa = Pseudomonas aeruginosa assay; assay type: cell-based; settings: Pseudomonas aeruginosa growth; peptide 10 micrograms per ml; read visually
Interferon-γ (IFN-γ) = test: Th1/Th2 cytokine profiling assay: IFN-γ; assay type: cell-based, Balb/c mice; settings: Ovalbumin-restimulated spleen cells; test peptide 10 micrograms per ml; 72 hours
From the text: as §1

SMILES: CC(C)C[C@H](NC(=O)CNC(=O)[C@H](CCC(=O)O)NC(=O)CNC(=O)[C@H](C)N)C(=O)N[C@@H](CC(N)=O)C(=O)N[C@@H](CO)C(=O)N[C@@H](CCC(N)=O)C(=O)N[C@@H](Cc1ccccc1)C(=O)N[C@@H](Cc1c[nH]c2ccccc12)C(=O)N[C@@H](CO)C(=O)N[C@@H](CC(C)C)C(=O)N[C@@H](C)C(=O)N[C@@H](C)C(=O)N1CCC[C@H]1C(=O)N[C@@H](CCC(N)=O)C(=O)N[C@@H](CCCNC(=N)N)C(=O)N[C@@H](Cc1ccccc1)C(N)=O [Neuropeptide AF, Ala-Gly-Glu-Gly-Leu-Asn-Ser-Gln-Phe-Trp-Ser-Leu-Ala-Ala-Pro-Gln-Arg-Phe-NH2] (H-AGEGLNSQFWSLAAPQRF-NH2)
- IL-5 spleen cells; TH2 response (% of control) (Interleukin-5 (IL-5)): 52.2 % of control
- % inhibition (MRSA): 0.0%
- % of control phagocytosis (RAW 264.7 cells): 105.9%
- % plaque reduction (HCMV strain AD169): 6.9%
- % of LPS induction (TNF alpha): 104.7%
- IL-2 spleen cells (% of control) (Interleukin-2 (IL-2)): 0.0 % of control
- viability at 144 h, 10 micrograms per ml [1]: 100%
- % of SAC/IL2 induced control [2]: 105.7%
- % of PHA induced control [3]: 103.8%
- viability at 144 h [4]: 100%
- % inhibition of migration [5]: −4%
- % inhibition of tube formation (HUVEC): −9%
- viability at 10 micrograms per ml [6]: 81.6%
- % inhibition (Streptococcus pneumoniae): 0.0%
- % inhibition of HBV replication in HEP G2 cells [7]: 42.6%
- IL-4 spleen cells; TH2 response (% of control) (Interleukin-4 (IL-4)): 0.0 % of control
- TNF-a spleen cells; TH1 response (% of control) [8]: 92.1 % of control
- % CPE reduction in HIV-1 infected CEM-SS cells (HIV-1IIIB): 0.0%
- Cell cycle analysis G0/G1 (A549 cells): 55.5
- Cell cycle analysis G2/M (A549 cells): 10.0
- Cell cycle analysis S (A549 cells): 34.5
- % inhibition (Pseudomonas aeruginosa): 0.0%
- IFNγ spleen cells; TH1 response (% of control) (Interferon-γ (IFN-γ)): 84.8 % of control

SMILES: CC(C)(C)NC(=O)[C@@H]1CN(Cc2cccnc2)CCN1C[C@@H](O)C[C@@H](Cc1ccccc1)C(=O)N[C@H]1c2ccccc2C[C@H]1O [Indinavir]
- % CPE reduction in HIV-1 infected CEM-SS cells (HIV-1IIIB): 100%

SMILES: Cc1cn([C@H]2C[C@H](N=[N+]=[N-])[C@@H](CO)O2)c(=O)[nH]c1=O [AZT]
- % CPE reduction in HIV-1 infected CEM-SS cells (HIV-1IIIB): 99%
